In patent US11542240B2, “STK19 inhibitors for treatment of cancer” (TRUSTEES OF BOSTON UNIVERSITY, priority 2018, dated 2023):

What was measured:
Assay in all cases: biochemical
Format in all cases: binding
[1] = molecular target: panel of 468 diverse kinases (Homo sapiens, UniProt O75460); settings: ERN1; 1000 nM; read-out: Percent Control
[2] = molecular target: panel of 468 diverse kinases (Homo sapiens, UniProt P49759); settings: CLK1; 1000 nM; read-out: Percent Control
[3] = molecular target: panel of 468 diverse kinases (Homo sapiens, UniProt O95819); settings: MAP4K4; 1000 nM; read-out: Percent Control
[4] = molecular target: panel of 468 diverse kinases (Homo sapiens, UniProt Q9Y4K4); settings: MAP4K5; 1000 nM; read-out: Percent Control
[5] = molecular target: panel of 468 diverse kinases (Homo sapiens, UniProt Q14680); settings: MELK; 1000 nM; read-out: Percent Control
[6] = molecular target: panel of 468 diverse kinases (Homo sapiens, UniProt Q9NRM7); settings: LATS2; 1000 nM; read-out: Percent Control
[7] = molecular target: panel of 468 diverse kinases (Homo sapiens, UniProt P57059); settings: SIK; 1000 nM; read-out: Percent Control
[8] = molecular target: panel of 468 diverse kinases (Homo sapiens, UniProt P00533, G719C); settings: EGFR(G719C); 1000 nM; read-out: Percent Control
[9] = molecular target: panel of 468 diverse kinases (Homo sapiens, UniProt O75116); settings: ROCK2; 1000 nM; read-out: Percent Control
[10] = molecular target: panel of 468 diverse kinases (Homo sapiens, UniProt P10721, V559D); settings: KIT(V559D); 1000 nM; read-out: Percent Control
[11] = molecular target: panel of 468 diverse kinases (Homo sapiens, UniProt O15264); settings: p38-delta; 1000 nM; read-out: Percent Control
[12] = molecular target: panel of 468 diverse kinases (Homo sapiens, UniProt Q02156); settings: PRKCE; 1000 nM; read-out: Percent Control
[13] = molecular target: panel of 468 diverse kinases (Homo sapiens, UniProt P52564); settings: MEK6; 1000 nM; read-out: Percent Control
[14] = molecular target: panel of 468 diverse kinases (Homo sapiens, UniProt Q9P2K8, S808G); settings: GCN2(Kin.Dom.2, S808G); 1000 nM; read-out: Percent Control
[15] = molecular target: panel of 468 diverse kinases (Homo sapiens, UniProt P06213); settings: INSR; 1000 nM; read-out: Percent Control
[16] = molecular target: panel of 468 diverse kinases (Homo sapiens, UniProt Q5S007, G2019S); settings: LRRK2(G2019S); 1000 nM; read-out: Percent Control
[17] = molecular target: panel of 468 diverse kinases (Homo sapiens, UniProt Q13233); settings: MAP3K1; 1000 nM; read-out: Percent Control
[18] = molecular target: panel of 468 diverse kinases (Homo sapiens, UniProt Q9H3Y6); settings: SRMS; 1000 nM; read-out: Percent Control
[19] = molecular target: panel of 468 diverse kinases (Homo sapiens, UniProt Q13153); settings: PAK1; 1000 nM; read-out: Percent Control
[20] = molecular target: panel of 468 diverse kinases (Homo sapiens, UniProt O14730); settings: RIOK3; 1000 nM; read-out: Percent Control
[21] = molecular target: panel of 468 diverse kinases (Homo sapiens, UniProt O94806); settings: PRKD3; 1000 nM; read-out: Percent Control
[22] = molecular target: panel of 468 diverse kinases (Homo sapiens, UniProt P50750); settings: CDK9; 1000 nM; read-out: Percent Control
[23] = molecular target: panel of 468 diverse kinases (Homo sapiens, UniProt Q9UBF8); settings: PIK4CB; 1000 nM; read-out: Percent Control
[24] = molecular target: panel of 468 diverse kinases (Homo sapiens, UniProt Q9Y2U5); settings: MAP3K2; 1000 nM; read-out: Percent Control
[25] = molecular target: panel of 468 diverse kinases (Homo sapiens, UniProt Q16659); settings: ERK3; 1000 nM; read-out: Percent Control
[26] = molecular target: panel of 468 diverse kinases (Homo sapiens, UniProt P42336); settings: PIK3CA; 1000 nM; read-out: Percent Control
[27] = molecular target: panel of 468 diverse kinases (Homo sapiens, UniProt Q9Y243); settings: AKT3; 1000 nM; read-out: Percent Control
[28] = molecular target: panel of 468 diverse kinases (Homo sapiens, UniProt P57058); settings: HUNK; 1000 nM; read-out: Percent Control
[29] = molecular target: panel of 468 diverse kinases (Homo sapiens, UniProt Q9NQU5); settings: PAK6; 1000 nM; read-out: Percent Control
[30] = molecular target: panel of 468 diverse kinases (Homo sapiens, UniProt Q8TDC3); settings: BRSK1; 1000 nM; read-out: Percent Control
[31] = molecular target: panel of 468 diverse kinases (Homo sapiens, UniProt Q8IU85); settings: CAMK1D; 1000 nM; read-out: Percent Control

Chain of panel of 468 diverse kinases (Homo sapiens, UniProt Q13153) (Q13153 2-545 limits assumed): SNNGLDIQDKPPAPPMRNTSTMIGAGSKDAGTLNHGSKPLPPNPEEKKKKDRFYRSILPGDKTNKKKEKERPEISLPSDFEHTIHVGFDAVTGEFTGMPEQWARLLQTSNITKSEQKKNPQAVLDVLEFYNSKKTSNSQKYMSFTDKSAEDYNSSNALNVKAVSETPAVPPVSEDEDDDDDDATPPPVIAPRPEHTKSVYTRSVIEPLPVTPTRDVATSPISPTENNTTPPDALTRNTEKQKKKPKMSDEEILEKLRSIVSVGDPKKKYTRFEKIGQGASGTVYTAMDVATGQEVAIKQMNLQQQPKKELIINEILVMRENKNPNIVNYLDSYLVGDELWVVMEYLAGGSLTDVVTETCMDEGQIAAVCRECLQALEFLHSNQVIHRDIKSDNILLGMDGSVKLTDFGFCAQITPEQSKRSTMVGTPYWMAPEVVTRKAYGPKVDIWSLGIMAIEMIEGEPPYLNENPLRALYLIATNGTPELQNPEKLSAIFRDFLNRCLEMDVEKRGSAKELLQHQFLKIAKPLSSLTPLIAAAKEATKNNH
Chain of panel of 468 diverse kinases (Homo sapiens, UniProt Q9UBF8) (Q9UBF8 2-816 limits assumed): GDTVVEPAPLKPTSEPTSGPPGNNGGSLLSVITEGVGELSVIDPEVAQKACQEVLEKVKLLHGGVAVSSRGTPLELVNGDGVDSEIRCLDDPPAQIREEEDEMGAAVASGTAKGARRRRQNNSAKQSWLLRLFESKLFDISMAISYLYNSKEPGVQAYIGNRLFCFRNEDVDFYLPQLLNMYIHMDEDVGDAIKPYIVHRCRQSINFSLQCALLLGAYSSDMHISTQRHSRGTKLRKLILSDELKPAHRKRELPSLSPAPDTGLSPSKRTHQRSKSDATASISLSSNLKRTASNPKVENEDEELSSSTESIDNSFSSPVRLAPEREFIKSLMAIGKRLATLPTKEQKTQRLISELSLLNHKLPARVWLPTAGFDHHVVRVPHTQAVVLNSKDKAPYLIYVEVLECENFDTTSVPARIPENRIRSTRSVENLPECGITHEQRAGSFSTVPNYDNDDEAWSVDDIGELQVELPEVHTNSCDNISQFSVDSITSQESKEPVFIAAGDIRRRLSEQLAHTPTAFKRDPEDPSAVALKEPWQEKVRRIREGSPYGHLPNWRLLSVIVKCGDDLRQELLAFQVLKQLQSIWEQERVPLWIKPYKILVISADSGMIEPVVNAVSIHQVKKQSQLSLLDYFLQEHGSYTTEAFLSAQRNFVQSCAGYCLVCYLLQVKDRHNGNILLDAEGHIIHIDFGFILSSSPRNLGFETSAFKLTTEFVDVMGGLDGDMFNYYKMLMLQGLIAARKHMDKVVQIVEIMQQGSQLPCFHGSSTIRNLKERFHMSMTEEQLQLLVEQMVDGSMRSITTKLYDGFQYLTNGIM
Chain of panel of 468 diverse kinases (Homo sapiens, UniProt O75460) (O75460 19-977 limits assumed): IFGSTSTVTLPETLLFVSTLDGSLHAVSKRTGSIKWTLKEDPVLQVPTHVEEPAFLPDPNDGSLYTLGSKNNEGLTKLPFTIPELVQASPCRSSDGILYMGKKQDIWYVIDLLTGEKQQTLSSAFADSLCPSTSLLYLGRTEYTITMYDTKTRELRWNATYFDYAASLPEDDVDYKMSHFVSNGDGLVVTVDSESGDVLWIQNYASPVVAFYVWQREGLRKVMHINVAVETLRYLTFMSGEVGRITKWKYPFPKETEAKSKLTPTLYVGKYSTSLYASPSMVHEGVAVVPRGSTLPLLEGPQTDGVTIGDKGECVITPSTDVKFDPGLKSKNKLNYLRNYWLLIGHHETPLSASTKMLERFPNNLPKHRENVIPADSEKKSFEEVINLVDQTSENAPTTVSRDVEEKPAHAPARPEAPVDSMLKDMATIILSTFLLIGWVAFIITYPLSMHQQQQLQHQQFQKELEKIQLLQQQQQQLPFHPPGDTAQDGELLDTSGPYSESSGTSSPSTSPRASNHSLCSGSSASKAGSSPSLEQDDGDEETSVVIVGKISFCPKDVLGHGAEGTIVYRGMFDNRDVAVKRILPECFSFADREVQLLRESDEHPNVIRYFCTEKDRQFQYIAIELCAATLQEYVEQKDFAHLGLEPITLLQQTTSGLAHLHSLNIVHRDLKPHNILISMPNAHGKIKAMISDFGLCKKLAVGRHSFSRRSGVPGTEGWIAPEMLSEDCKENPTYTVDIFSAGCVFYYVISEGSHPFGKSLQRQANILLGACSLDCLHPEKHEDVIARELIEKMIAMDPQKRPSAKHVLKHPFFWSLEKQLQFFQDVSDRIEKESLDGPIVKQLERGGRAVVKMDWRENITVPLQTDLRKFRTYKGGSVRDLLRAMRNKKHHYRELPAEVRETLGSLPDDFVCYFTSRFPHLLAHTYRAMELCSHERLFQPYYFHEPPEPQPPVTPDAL
Chain of panel of 468 diverse kinases (Homo sapiens, UniProt O95819) (O95819 2-1239 limits assumed): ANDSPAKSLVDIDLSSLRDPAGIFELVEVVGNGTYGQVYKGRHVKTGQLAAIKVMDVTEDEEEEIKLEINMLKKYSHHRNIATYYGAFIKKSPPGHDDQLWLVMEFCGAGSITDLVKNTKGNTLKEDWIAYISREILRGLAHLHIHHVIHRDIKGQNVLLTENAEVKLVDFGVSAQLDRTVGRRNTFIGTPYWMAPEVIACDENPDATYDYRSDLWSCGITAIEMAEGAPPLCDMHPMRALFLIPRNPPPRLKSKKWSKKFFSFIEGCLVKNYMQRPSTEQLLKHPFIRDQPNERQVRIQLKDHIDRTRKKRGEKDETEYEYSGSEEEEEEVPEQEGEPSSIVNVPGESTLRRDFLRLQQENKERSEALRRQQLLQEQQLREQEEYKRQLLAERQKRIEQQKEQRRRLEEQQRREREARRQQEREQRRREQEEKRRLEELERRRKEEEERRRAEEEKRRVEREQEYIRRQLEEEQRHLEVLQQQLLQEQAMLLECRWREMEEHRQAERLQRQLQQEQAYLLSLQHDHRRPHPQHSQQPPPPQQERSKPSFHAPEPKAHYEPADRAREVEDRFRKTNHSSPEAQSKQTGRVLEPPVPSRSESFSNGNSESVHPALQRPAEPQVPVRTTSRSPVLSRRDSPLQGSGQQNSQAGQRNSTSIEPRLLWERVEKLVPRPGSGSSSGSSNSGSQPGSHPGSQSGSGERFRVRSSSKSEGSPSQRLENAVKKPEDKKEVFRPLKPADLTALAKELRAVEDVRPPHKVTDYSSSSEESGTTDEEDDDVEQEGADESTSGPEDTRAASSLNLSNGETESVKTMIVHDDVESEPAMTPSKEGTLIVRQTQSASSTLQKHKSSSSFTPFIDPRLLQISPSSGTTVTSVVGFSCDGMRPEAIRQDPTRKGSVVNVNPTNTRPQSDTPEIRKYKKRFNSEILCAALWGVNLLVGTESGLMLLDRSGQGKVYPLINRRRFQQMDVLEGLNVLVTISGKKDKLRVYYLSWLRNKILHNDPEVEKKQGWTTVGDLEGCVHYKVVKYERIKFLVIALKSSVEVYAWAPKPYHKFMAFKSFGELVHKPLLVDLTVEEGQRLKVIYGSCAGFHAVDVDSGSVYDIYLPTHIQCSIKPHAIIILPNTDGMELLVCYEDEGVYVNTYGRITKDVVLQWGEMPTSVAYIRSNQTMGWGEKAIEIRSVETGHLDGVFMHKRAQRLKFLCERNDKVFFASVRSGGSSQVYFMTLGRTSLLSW
Chain of panel of 468 diverse kinases (Homo sapiens, UniProt Q13233) (Q13233 2-1512 limits assumed): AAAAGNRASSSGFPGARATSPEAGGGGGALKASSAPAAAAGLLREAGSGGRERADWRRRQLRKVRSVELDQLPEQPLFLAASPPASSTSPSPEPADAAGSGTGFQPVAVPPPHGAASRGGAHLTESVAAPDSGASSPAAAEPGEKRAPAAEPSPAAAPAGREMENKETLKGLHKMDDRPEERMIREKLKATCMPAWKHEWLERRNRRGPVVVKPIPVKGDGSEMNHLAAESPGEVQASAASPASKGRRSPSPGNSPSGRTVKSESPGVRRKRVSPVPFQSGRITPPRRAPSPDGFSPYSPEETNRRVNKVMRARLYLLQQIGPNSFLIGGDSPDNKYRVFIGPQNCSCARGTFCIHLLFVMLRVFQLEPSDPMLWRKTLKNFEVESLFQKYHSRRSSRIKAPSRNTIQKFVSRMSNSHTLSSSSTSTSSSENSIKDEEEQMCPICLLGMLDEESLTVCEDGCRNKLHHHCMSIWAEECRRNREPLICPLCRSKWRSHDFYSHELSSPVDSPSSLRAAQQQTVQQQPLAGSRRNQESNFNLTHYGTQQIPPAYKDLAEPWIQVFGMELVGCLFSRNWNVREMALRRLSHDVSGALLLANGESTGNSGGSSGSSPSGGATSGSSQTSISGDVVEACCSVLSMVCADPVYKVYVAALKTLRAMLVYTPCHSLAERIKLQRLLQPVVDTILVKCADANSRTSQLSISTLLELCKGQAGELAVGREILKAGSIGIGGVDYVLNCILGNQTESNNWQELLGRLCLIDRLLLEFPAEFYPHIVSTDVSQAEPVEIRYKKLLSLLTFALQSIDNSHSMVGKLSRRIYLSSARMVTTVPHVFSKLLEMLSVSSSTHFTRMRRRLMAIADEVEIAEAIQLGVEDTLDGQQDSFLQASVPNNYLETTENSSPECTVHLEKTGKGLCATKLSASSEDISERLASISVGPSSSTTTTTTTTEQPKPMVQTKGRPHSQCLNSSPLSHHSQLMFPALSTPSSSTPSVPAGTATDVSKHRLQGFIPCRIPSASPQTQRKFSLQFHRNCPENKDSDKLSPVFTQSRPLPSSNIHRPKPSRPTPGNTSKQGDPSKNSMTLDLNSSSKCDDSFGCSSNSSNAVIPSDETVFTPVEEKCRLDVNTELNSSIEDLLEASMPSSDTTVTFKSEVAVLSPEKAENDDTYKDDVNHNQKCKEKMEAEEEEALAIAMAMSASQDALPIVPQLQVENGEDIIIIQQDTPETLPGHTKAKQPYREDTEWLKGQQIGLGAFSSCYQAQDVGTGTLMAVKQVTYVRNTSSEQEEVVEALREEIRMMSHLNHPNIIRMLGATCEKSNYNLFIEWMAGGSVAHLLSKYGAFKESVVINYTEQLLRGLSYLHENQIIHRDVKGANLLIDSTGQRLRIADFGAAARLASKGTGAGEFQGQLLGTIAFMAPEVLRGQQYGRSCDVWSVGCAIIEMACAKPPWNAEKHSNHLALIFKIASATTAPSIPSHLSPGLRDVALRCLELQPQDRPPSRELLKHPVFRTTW

COc1cc2nc(NC3CC3)nc(NC3CCN(C(C)C)CC3)c2cc1OC [Formula IV]
remaining activity at 1 µM [1]: 33%
remaining activity at 1 µM [2]: 96%
remaining activity at 1 µM [3]: 100%
remaining activity at 1 µM [4]: 100%
remaining activity at 1 µM [5]: 85%
remaining activity at 1 µM [6]: 95%
remaining activity at 1 µM [7]: 81%
remaining activity at 1 µM [8]: 91%
remaining activity at 1 µM [9]: 49%
remaining activity at 1 µM [10]: 100%
remaining activity at 1 µM [11]: 98%
remaining activity at 1 µM [12]: 100%
remaining activity at 1 µM [13]: 99%
remaining activity at 1 µM [14]: 94%
remaining activity at 1 µM [15]: 57%
remaining activity at 1 µM [16]: 54%
remaining activity at 1 µM [17]: 54%
remaining activity at 1 µM [18]: 89%
remaining activity at 1 µM [19]: 87%
remaining activity at 1 µM [20]: 100%
remaining activity at 1 µM [21]: 91%
remaining activity at 1 µM [22]: 100%
remaining activity at 1 µM [23]: 100%
remaining activity at 1 µM [24]: 65%
remaining activity at 1 µM [25]: 90%
remaining activity at 1 µM [26]: 97%
remaining activity at 1 µM [27]: 91%
remaining activity at 1 µM [28]: 74%
remaining activity at 1 µM [29]: 91%
remaining activity at 1 µM [30]: 92%
remaining activity at 1 µM [31]: 100%
